Reference: patent US12343318B2, “Use of compound or medicinal derivative thereof in inhibiting AIM2 protein activity” (Liangdan Sun, priority 2023, dated 2025)

Key:
[1] = tested on: IL-1β gene expression in the mouse skin; assay: Transcription levels of AIM2 pathway genes in skin of IMQ mice; type: in vivo, C57/BL6 mice; settings: 5 mg/kg, smeared on skin
Method: (§1) In the embodiment of the disclosure, dimethyl sulfoxide (DMSO) is used to dissolve T6S1683 powder, the powder is weighed according to different dosage, then diluted with β-cyclodextrin, and a final concentration of DMSO shall not exceed 5%. The dose gradients of T6S1683 set are 0 mg/kg, 1 mg/kg, 2.5 mg/kg, 5 mg/kg and 10 mg/kg respectively. Each mouse is calculated as 20 grams (g), and 0 mg/kg, 1 mg/kg, 2.5 mg/kg, 5 mg/kg and 10 mg/kg of T6S1683 are administered respective mice every day.
(§2) Seven-week-old C57/BL6 mice are selected, fed and modeled in a […] (SPF) environment. The experimental groups are as follows. […]
(§3) Six mice in each group above, and the mice are shaved back hair to make an exposed skin reach 4 square centimeters. […] The mouse skins are scored every day, the mice are sacrificed on Day 6, and skin tissue is taken for a series of tests.

human AIM2 protein = biological target: T1, human AIM2 protein (Homo sapiens, UniProt O14862); assay: Affinity by SPR (Biacore, CM5 chip amino-coupling), human AIM2; settings: human full-length AIM2 protein, read-out: binding constant KD
T1 construct: a human full-length AIM2 protein is expressed and purified firstly by pET28A vector; made in house
T1 sequence (O14862 1-343): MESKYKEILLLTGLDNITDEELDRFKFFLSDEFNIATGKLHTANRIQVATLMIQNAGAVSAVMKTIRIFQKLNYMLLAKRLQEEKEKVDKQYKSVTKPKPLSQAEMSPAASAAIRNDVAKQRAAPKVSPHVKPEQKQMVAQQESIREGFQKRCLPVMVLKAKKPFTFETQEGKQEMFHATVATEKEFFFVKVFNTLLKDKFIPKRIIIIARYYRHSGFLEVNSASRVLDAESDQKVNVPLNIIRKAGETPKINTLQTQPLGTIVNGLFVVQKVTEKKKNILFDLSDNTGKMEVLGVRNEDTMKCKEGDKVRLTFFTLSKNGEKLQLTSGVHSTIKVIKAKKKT
Method: In the embodiment of the disclosure, the affinity between T6S1683 and human AIM2 protein is detected. Specifically, a human full-length AIM2 protein is expressed and purified firstly by pET28A vector, and then the affinity is determined by CM5 chip amino-coupling method through a surface-plasmon resonance (SPR) method of Biacore.

[2] = tested on: AIM2 downstream protein in HaCat cells; assay: AIM2 downstream protein expression in HaCaT cells (Western Blot, ELISA); type: cell-based; settings: 10 uM
mouse AIM2 protein = biological target: T2, mouse AIM2 protein (Mus musculus, UniProt Q91VJ1); assay: Affinity by SPR (Biacore, CM5 chip amino coupling), mouse AIM2; settings: mouse full-length AIM2 protein, read-out: binding constant KD
T2 construct: a mouse full-length AIM2 protein is expressed and purified firstly by pET28A vector; made in house
T2 sequence (Q91VJ1 1-354): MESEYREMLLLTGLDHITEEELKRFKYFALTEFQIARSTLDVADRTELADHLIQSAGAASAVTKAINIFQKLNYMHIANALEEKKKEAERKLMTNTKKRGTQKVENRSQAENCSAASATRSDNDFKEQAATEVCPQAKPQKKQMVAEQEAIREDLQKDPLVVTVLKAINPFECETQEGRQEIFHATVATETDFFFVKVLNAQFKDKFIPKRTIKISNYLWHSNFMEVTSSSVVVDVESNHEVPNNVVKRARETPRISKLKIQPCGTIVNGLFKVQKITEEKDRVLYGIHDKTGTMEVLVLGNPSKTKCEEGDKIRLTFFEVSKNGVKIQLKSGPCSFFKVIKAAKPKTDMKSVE
Method: In the embodiment of the disclosure, the affinity between T6S1683 and mouse AIM2 protein is detected. Specifically, a mouse full-length AIM2 protein is expressed and purified firstly by pET28A vector, and then the affinity is determined by CM5 chip amino coupling method by the SPR method of Biacore.

HaCaT cells = assay: Cell state (pyroptosis) of OligodA-T transfected HaCaT cells under microscope; type: cell-based; settings: 10 uM, microscope 100×
[3] = tested on: IL-1β mRNA in HaCaT cells; assay: Real-time fluorescence PCR of IL-1β mRNA in HaCaT cells stimulated by OligodA-T; type: cell-based; settings: 10 uM, 24 hours
Method: The protective ability of 44 compounds screened above against cell pyroptosis of HaCaT cells stimulated by OligodA-T is evaluated by the real-time fluorescent quantitative polymerase chain reaction (PCR) detection of IL-1β mRNA in the stimulated cells. […] Positive control (PC) and negative control (NC) are set in the experimental group. An inclusion of Lip3000 (Lipofectamine™ 3000 Transfection Reagent) and OligodA-T (OligodA-T: Lip3000:P3000=1:1:25, a concentration of OligodA-T is 1 microgram per […] abbreviated as ug/mL) is used to transfect HaCat cells. […] Each experimental group is incubated in a cell incubator containing 5% CO2 for 24 hours at 37° C., and the cells are collected for real-time fluorescence PCR detection.
• (1) A positive control (PC), a negative control (NC) and respective treatment groups are set. […] The HaCat cells are co-transfected with inclusions of Lip3000-OligodA-T at gradient doses (0.1 uM, 1 uM, 5 uM, 10 uM and 25 uM) of T6S1683 in the respective treatment groups. • (2) The positive control (PC), the negative control (NC) and the respective treatment groups are incubated in a cell incubator containing 5% CO2 at 37° C. for 24 hours, and the cells are collected for real-time fluorescence PCR detection to observe the effects of different doses of inhibitors on the activation of AIM2 pathway in the HaCaT cells.

[4] = tested on: TCRγ/CD3^+RORγt cells in the lymphocytes of mouse skin; assay: Flow cytometry of skin lymphocytes of IMQ mice; type: in vivo, C57/BL6 mice; settings: 5 mg/kg, smeared on skin
Method: as §1, §2, §3
Next, skin lymphocytes of the mice in each group (proportion of TCRγ/CD3^+RORγt cells in the lymphocytes of mouse skin, which are the main effector cells mediated by AIM2 pathway in psoriasis and can secrete a large amount of IL-17 cytokines to aggravate psoriasis) are detected by flow cytometry.

IMQ mice = assay: IMQ psoriasis mouse model: PASI scores, skin and pathological phenotypes; type: in vivo, C57/BL6 mice
Method: as §1
Seven-week-old C57/BL6 mice are selected, fed and modeled in a […] (SPF) environment. The experimental groups are as follows. (a) mouse skin smeared with IMQ and 0 mg/kg of T6S1683; (b) mouse skin smeared with IMQ and 1 mg/kg of T6S1683; (c) mouse skin smeared with IMQ and 2.5 mg/kg of T6S1683; (d) mouse skin smeared with IMQ and 5 mg/kg of T6S1683; (e) mouse skin smeared with IMQ and 10 mg/kg of T6S1683; (f) mouse skin smeared with Vaseline and 0 mg/kg of T6S1683; (g) mouse skin smeared with Vaseline and 1 mg/kg of T6S1683; (h) mouse skin smeared with Vaseline and 2.5 mg/kg of T6S1683; (i) mouse skin smeared with Vaseline and 5 mg/kg of T6S1683; and (j) mouse skin smeared with Vaseline and 10 mg/kg of T6S1683. (Note: the daily dosage of IMQ in groups (a), (b), (c), (d) and (e) is 62.5 mg/mouse, and the daily dosage of Vaseline in groups (f), (g), (h), (i) and (j) is 62.5 mg/mouse.)
Six mice in each group above, and the mice are shaved back hair to make an exposed skin reach 4 square centimeters. A start date of the experiment is set as Day 0 and an end date is set as Day 6. From Day 0 to Day 5, 500 μL medicine solution is applied daily and evenly smeared mouse skin to absorb, with 500 uL applied in the morning at a dose of 150 uL, at noon at 200 uL, and at night at 150 uL. […] The mouse skins are scored every day, the mice are sacrificed on Day 6, and skin tissue is taken for a series of tests. […]

SMILES: COc1cc(/C=C/C(=O)CC(=O)/C=C/c2ccc(O)cc2)ccc1O [T6S1683, 1,6-heptadiene-3,5-dione,1-(4-hydroxy-3-methoxyphenyl)-7-(4-hydroxyphenyl)-,(1E, 6E)-]
- IL-1β gene expression level in mouse skin [1]: significantly down-regulated
- Kd (human AIM2 protein): 1.56 µM
- expression of AIM2 downstream protein (Western Blot) [2]: slightly decreases
- secretion of IL-1β (ELISA) [2]: inhibitory effect
- Kd (mouse AIM2 protein): 5.12 µM
- cell state (HaCaT cells): close to that of the NC group
- IL-β transcription levels compared to the PC group ([3]; among 5 dose gradients (0.1, 1, 5, 10, 25 uM)): reduced IL-β transcription levels in the HaCat cells the most
- inhibitory effect on IL-1β mRNA compared with the positive control ([3]; screening of 44 compounds, OligodA-T 1 ug/mL): most significant inhibitory effect
- proportion of TCRγ/CD3^+RORγt compared with IMQ mice without T6S1683 [4]: significantly lower
- effect on inflammatory phenotype of IMQ mice (IMQ mice; 1 mg/kg, smeared on skin): no difference
- reduction effect on inflammatory phenotype of IMQ mice (IMQ mice; 5 mg/kg, smeared on skin): the most significant
- inflammatory phenotype of IMQ mice (IMQ mice; three doses, smeared on skin daily Day 0 to Day 5): reduced the inflammatory phenotype of IMQ mice to varying degrees
